{"source": "patent US6521634B2", "about": "“Uses of dl-THP” (The Hong Kong University of Science & Technology, priority 2001, dated 2003)", "key": {"[1]": {"test_system": "mice", "settings": "cited from earlier work"}, "[2]": {"molecular_target": "BDZ binding site of the GABAA receptor", "assay": "competitive binding assay with [3H]-flunitrazepam", "settings": "[3H]-flunitrazepam competition"}, "[3]": {"test_system": "ICR mice", "assay": "Horizontal-wire test", "type": "in vivo", "settings": "up to 30 mg/kg orally", "description": "ICR mice of either sex, weighing 14-17 g were used. Animals were housed in groups of four or five and were given food and water ad libitum and maintained on a 11 hour light: 13 hour dark cycle. All of the experimental groups had 12 animals per group. dl-THP was dissolved in double distilled water and administered orally 1 hour before testing at concentrations as detailed below, with a total injection volume of 10 ml/kg. For the control group, double-distilled water was used as the vehicle. The mice are lifted by the tail and allowed to grasp a horizontally strung wire (1 mm diameter, 15 cm long and placed 20 cm above the table) with their forepaws and released (Bonetti E P et al., Psychophannacology (Berl). 1982;78(1):8-18; PMID: 6292984)."}, "[4]": {"molecular_target": "α-2 adrenoceptors", "settings": "rat cerebral cortex; previously performed studies; cited from earlier work"}, "[5]": {"test_system": "rats", "settings": "rat, in vivo, po; cited from earlier work"}, "[6]": {"molecular_target": "α-1 adrenoceptors", "settings": "rat cerebral cortex; previously performed studies; cited from earlier work"}, "[7]": {"test_system": "ICR mice", "assay": "Hole-board test", "type": "in vivo", "settings": "5 minute test", "description": "ICR mice of either sex, weighing 14-17 g were used. Animals were housed in groups of four or five and were given food and water ad libitum and maintained on a 11 hour light: 13 hour dark cycle. All of the experimental groups had 12 animals per group.\ndl-THP was dissolved in double distilled water and administered orally 1 hour before testing at concentrations as detailed below, with a total injection volume of 10 ml/kg. For the control group, double-distilled water was used as the vehicle.\nAll procedures were carried out in a quiet, air-conditioned laboratory between 08:00 and 13:00 at ambient temperature of 20-22° C. At the end of each session any boluses were removed and the box was thoroughly wiped with 70% ethanol.\nThe hole-board apparatus is a walled wood arena of 60×60×30 cm, with four equidistant 3 cm diameter holes spaced on the floor. The mice are placed on the center of the arena and the number of head-dips on the hole, the time spent head-dipping, the number of rearings and the time spent rearing are counted during a 5 minute test period (File SE et al., “The effects of triazolobenzodiazepines in two animal tests of anxiety and in the holeboard.”, Br J Pharmacol. November 1985;86(3):729-35; PMID: 2866006). After each trial, the floor of the apparatus was wiped and dried thoroughly with tissue to remove traces of the previous path.\nThe results from the locomotor activity test and the elevated plus-maze test are expressed as mean±standard error of mean (SEM). All data were submitted to analysis of variance (ANOVA). Post hoc comparisons between individual treatments and controls of the locomotor activity test, the hole-board test and the elevated plus-maze test were made using Dunnett's t-test. The level of significance was considered to be p<0.05."}, "[8]": {"test_system": "ICR mice", "assay": "Elevated plus-maze test", "type": "in vivo", "description": "ICR mice of either sex, weighing 14-17 g were used. Animals were housed in groups of four or five and were given food and water ad libitum and maintained on a 11 hour light: 13 hour dark cycle. All of the experimental groups had 12 animals per group. dl-THP was dissolved in double distilled water and administered orally 1 hour before testing at concentrations as detailed below, with a total injection volume of 10 ml/kg. For the control group, double-distilled water was used as the vehicle. All procedures were carried out in a quiet, air-conditioned laboratory between 08:00 and 13:00 at ambient temperature of 20-22° C. At the end of each session any boluses were removed and the box was thoroughly wiped with 70% ethanol. The elevated plus-maze is made of wood as a horizontal cross consisting of two open arms (25×5 cm) and two opposite arms (25×5 cm) enclosed by 20 cm high walls. The arms extend from a central platform having dimensions of 5×5 cm. The plus-maze is elevated to a height of 40 cm from the floor. The maze is put inside a box with dimensions of 30×30×50 cm. After the hole-board test, the mice are immediately placed on the central platform of the maze facing a closed arm. The number of arm entries and the time spent into the open and closed arm are counted for 5 minutes (Pellow S et al., “Anxiolytic and anxiogenic drug effects on exploratory activity in an elevated plus-maze: a novel test of anxiety in the rat.”, Pharmacol Biochem Behav. March 1986;24(3):525-9; PMID: 2871560). Arm entry was defined as all four feet in the arm. The total number of arm entries provided a measure of general activity. […] The results from the locomotor activity test and the elevated plus-maze test are expressed as mean±standard error of mean (SEM). All data were submitted to analysis of variance (ANOVA). Post hoc comparisons between individual treatments and controls of the locomotor activity test, the hole-board test and the elevated plus-maze test were made using Dunnett's t-test. The level of significance was considered to be p<0.05."}, "[9]": {"test_system": "ICR mice", "assay": "Locomotor activity test", "type": "in vivo", "settings": "1 hour before 5 minute test", "description": "ICR mice of either sex, weighing 14-17 g were used. Animals were housed in groups of four or five and were given food and water ad libitum and maintained on a 11 hour light: 13 hour dark cycle. All of the experimental groups had 12 animals per group. dl-THP was dissolved in double distilled water and administered orally 1 hour before testing at concentrations as detailed below, with a total injection volume of 10 ml/kg. For the control group, double-distilled water was used as the vehicle. All procedures were carried out in a quiet, air-conditioned laboratory between 08:00 and 13:00 at ambient temperature of 20-22° C. At the end of each session any boluses were removed and the box was thoroughly wiped with 70% ethanol. The ZIL-2 apparatus (Beijing Institute of Materia Medica) having dimensions of 60×60×12 cm was used to perform this test. It consists of four circular plastic boxes of 25 cm diameter, each having 6 equally distributed infrared photocells. The locomotor activity was counted automatically during a 5 minute test period. A decrease in the number of transitions reflects a decrease in locomotor activity. The results from the locomotor activity test and the elevated plus-maze test are expressed as mean±standard error of mean (SEM). All data were submitted to analysis of variance (ANOVA). Post hoc comparisons between individual treatments and controls of the locomotor activity test, the hole-board test and the elevated plus-maze test were made using Dunnett's t-test. The level of significance was considered to be p<0.05."}, "[10]": {"settings": "1, 10 and 30 mg/kg orally, dose-dependent, 5 minute test"}}, "note": "Where two headings read alike, the source gives them in different places.", "data": [{"smiles": "COc1cc2c(cc1OC)C1Cc3ccc(OC)c(OC)c3CN1CC2", "note": "(racemic) [dl-THP, 5,8,18,13a-tetrahydro-2,3,9,10-tetramethoxy-6H-dibenzo [a,q] quinolizine]", "values": [{"measurement": "LD50", "setting": "[1]; mice, sub-cutaneous administration", "value": 670, "unit": "mg/kg"}, {"measurement": "LD50", "setting": "[1]; mouse, in vivo, po", "value": 1160, "unit": "mg/kg"}, {"measurement": "IC50", "setting": "[2]; read-out: IC50, inhibition of binding of [3H]-flunitrazepam to the BDZ binding site of the GABAA receptor", "value": 836, "unit": "µM"}, {"measurement": "Ki", "setting": "[2]; read-out: Ki, inhibition of binding of [3H]-flunitrazepam to the BDZ binding site of the GABAA receptor", "value": 518, "unit": "µM"}, {"measurement": "muscle-relaxant effect, grasping of horizontal wire", "setting": "[3]", "value": "without effect"}, {"measurement": "Ki", "setting": "[4]", "value": 4.97, "unit": "µM"}, {"measurement": "LD50", "setting": "[5]", "value": 930, "unit": "mg/kg"}, {"measurement": "Ki", "setting": "[6]", "value": 4.7, "unit": "µM"}, {"measurement": "number of head-dips (Dunnett's test)", "setting": "[7]; 10 mg/kg orally", "value": "significantly reduced"}, {"measurement": "number of head-dips", "setting": "[7]; 30 mg/kg orally", "value": "significantly reduced"}, {"measurement": "time spent head-dipping", "setting": "[7]; 30 mg/kg orally", "value": "significantly reduced"}, {"measurement": "open arm parameters versus controls (Dunnett's test)", "setting": "[8]; 1 mg/kg orally", "value": "significantly differed from controls"}, {"measurement": "total number of arm entries", "setting": "[8]; 1, 10 and 30 mg/kg orally, 5 minute test", "value": "did not significantly alter"}, {"measurement": "percentage of open arm entries", "setting": "[8]; [10]", "value": "significantly elevated"}, {"measurement": "percentage of time spent on the open arms", "setting": "[8]; [10]", "value": "significantly elevated"}, {"measurement": "reduction of locomotor activity", "setting": "[9]; 1 mg/kg orally", "value": 33, "unit": "%"}, {"measurement": "reduction of locomotor activity", "setting": "[9]; 10 mg/kg orally", "value": 33, "unit": "%"}, {"measurement": "reduction of locomotor activity", "setting": "[9]; 30 mg/kg orally", "value": 36, "unit": "%"}]}]}
